Converted amounts (≈) assume the structure as drawn.
How the values were obtained:
[1] = Toxicity in goldfish assessed as lethal dose; conditions: carassius auratus
[2] = tested on: Nitzschia amabilis; experiment: Growth inhibition of marine diatom assessed as inhibition; type: functional, organism-based
[3] = tested on: L1210; experiment: Cytotoxicity against mouse L1210 cells assessed as inhibition of cell growth; type: functional, cell-based
[4] = tested on: KB; experiment: Cytotoxicity against human KB cells; type: functional, cell-based
[5] = tested on: HeLa; experiment: Cytotoxicity against human HeLa cells assessed as inhibition of cell growth incubated for 48 hrs by WST-8 colorimetric assay; type: functional, cell-based
[6] = tested on: LoVo; experiment: Cytotoxicity against human LoVo cells; type: functional, cell-based
[7] = tested on: N2a; experiment: Cytotoxicity against mouse Neuro2a cells assessed as inhibition of cell growth; type: functional, cell-based; conditions: Mus musculus, N2a
[8] = tested on: PANC-1; experiment: Cytotoxicity against human PANC-1 cells; type: functional, cell-based
[9] = target: Tubulin; experiment: Inhibition of tubulin polymerization (unknown origin) by tubulin polymerization assay; type: protein-complex assay, Homo sapiens
[10] = Antiproliferative activity against CHO-AUXB1 cells; type: toxicity, cell-based; conditions: Chinese hamster (Cricetulus griseus)
[11] = target: Tubulin (Homo sapiens) (UniProt P68371+Q9H4B7+P0DPH7+P68366+Q13509+Q71U36+P04350+Q3ZCM7+P07437+P68363+Q9BQE3+Q6PEY2+Q13885+Q9BVA1+Q9BUF5); experiment: Inhibition of colchicine binding to tubulin (unknown origin) assessed inhibition rate at 5 uM relative to control; type: protein-complex assay
[12] = tested on: CA46; experiment: Cytotoxicity against human CA46 cells assessed as inhibition of cell growth; type: functional, cell-based
[13] = Toxicity in brine shrimp assessed as lethal dose; conditions: artemia salina
[14] = Toxicity in brine shrimp; conditions: artemia salina; read-out: ED50 (the source's name)
[15] = tested on: U-251; experiment: Cytotoxicity against human U-251MG cells; type: functional, cell-based
[16] = tested on: HCT-116; experiment: Cytotoxicity against human HCT-116 cells assessed as inhibition of cell growth; type: functional, cell-based
[17] = tested on: HeLa; experiment: Cytotoxicity against human HeLa cells assessed as inhibition of cell growth incubated for 72 hrs by MTT assay; type: functional, cell-based
[18] = Toxicity in mouse assessed as lethal dose; conditions: in vivo
[19] = tested on: Neuro2a; experiment: Inhibition of sodium channel in mouse Neuro2a cells; type: cell-based
[20] = tested on: Echinoidea; experiment: Antiproliferative activity against sea urchin fertilized embryo assessed as inhibition of cell division; type: functional, organism-based
[21] = tested on: NCI-H460; experiment: Cytotoxicity against human NCI-H460 cells; type: functional, cell-based
[22] = organism: Homo sapiens; experiment: Inhibition of Voltage-gated sodium channel (unknown origin) at 3 ug/ml incubated for 18 hrs by cell-based bioassay relative to control; conditions: dose 3.0 µg/ml
[23] = organism: Homo sapiens; experiment: Activation of Voltage-gated sodium channel (unknown origin) at 3 ug/ml incubated for 18 hrs by cell-based bioassay relative to control; conditions: dose 3.0 µg/ml
[24] = Toxicity in goldfish assessed as lethality at 5 ppm relative to control; conditions: carassius auratus, read-out: Activity
[25] = Toxicity in brine shrimp assessed as lethality at 10 ppm relative to control; conditions: artemia salina, read-out: Activity
[26] = tested on: MCF7; experiment: Cytotoxicity against human MCF7 cells assessed as inhibition of cell growth; type: functional, cell-based
[27] = tested on: PC-3; experiment: Cytotoxicity against human PC-3 cells assessed as cell growth inhibition; type: functional, cell-based
[28] = tested on: Pseudomonas aeruginosa; experiment: Antibacterial activity against Pseudomonas aeruginosa PA01 assessed as inhibition of swarming at 100 ppm relative to control; type: functional
[29] = tested on: A549; experiment: Cytotoxicity against human A549 cells assessed as cell growth inhibition; type: functional, cell-based
[30] = tested on: SK-OV-3; experiment: Cytotoxicity against human SK-OV-3 cells assessed as cell growth inhibition; type: functional, cell-based
[31] = tested on: HCT-8; experiment: Cytotoxicity against human HCT-8 cells assessed as cell growth inhibition; type: functional, cell-based
[32] = tested on: P388; experiment: Cytotoxicity against mouse P388 cells assessed as inhibition of cell growth; type: functional, cell-based
[33] = tested on: Plasmodium falciparum; experiment: Antimalarial activity against Plasmodium falciparum assessed as growth inhibition; type: functional, organism-based
[34] = Toxicity in goldfish assessed as survival rate at 5 ppm measured after 90 mins relative to control; conditions: carassius auratus
[35] = read-out: LD50 (the source's name)

Work on C=C1CC(=O)N[C@@H](C)C(=O)N(C)[C@@H](C(C)C)C(=O)NCC(=O)O[C@@H](/C(C)=C/C(C)=C/C(C)(C)C)[C@@H]1C [ANTILLATOXIN] yielded an LC50 [1] of 100 nM.
With CO[C@@H](CC[C@H](C)[C@@H](O)[C@@H](C)/C=C/C1=C(C(=O)O[C@@H]2CC(=O)O[C@@H]2C)C(=O)[C@H](C)CC1(C)C)c1cc(O)ccc1Br the IC50 [2] was 1.2 µg/mL (≈ 1.89 µM) and the IC50 [3] was 4.6 µg/mL.
With CC[C@@H](C)[C@H]1C(=O)N2CCC[C@H]2C(=O)O[C@H](C(C)(C)C)C[C@@H](C)C[C@H](O)[C@H](C)C2=N[C@@H](/C=C(\C)C(=O)N[C@@H](Cc3ccc(OC)cc3)C(=O)N(C)[C@@H](C)C(=O)N1C)CS2 the IC50 [4] was 0.36 nM, the IC50 [5] was 190 nM and the IC50 [6] was 0.36 nM. It also gave an IC50 [7] of 1000 nM.
CCCC[C@@H](C)C[C@@H](C)C(=O)N(C)[C@@H](Cc1ccc(OC)cc1)C(=O)N[C@H](C(=O)N(C)[C@H](C(=O)N1C[C@@H](O)C[C@H]1C(=O)N1C(=O)C=C[C@@H]1C)C(C)C)[C@@H](C)OC(C)=O gave an IC50 [8] of 0.32 nM.
Work on C=CCC(CC/C(C)=C/C=C/CC/C=C\C1CSC([C@@H]2C[C@@H]2C)=N1)OC (stereo partly specified) yielded an IC50 [9] of 690 nM, an IC50 [10] of 0.0068 µg/mL (≈ 0.0182 µM) and an inhibition [11] of 94%. It also gave an IC50 [12] of 200 nM, an IC50 [3] of 9 nM and an LC50 ([13]; read-out: LC50) of 0.003 µg/mL.
In the case of O=CNC(CCCC#CC=C(Cl)Cl)CCC/C=C/CC(Cl)Cl (stereo unspecified), the LC50 [13, 35] is reported as 1.7 µg/mL and the LC50 [14] is reported as 1 µg/mL (≈ 2.6 µM).
Molecule CCCC[C@@H](C)C[C@@H](C)C(=O)N(C)[C@@H](Cc1ccc(OC)cc1)C(=O)N[C@H](C(=O)N(C)[C@H](C(=O)N1CCC[C@H]1C(=O)N1C(=O)C=C[C@@H]1C)C(C)C)[C@@H](C)OC(C)=O has an IC50 [15] of 36.8 nM.
Work on CC[C@H](C)[C@H]1C(=O)N2CCC[C@H]2C(=O)O[C@H](C(C)(C)C)C[C@@H](C)C/C=C/C2=N[C@@H](CCC(=O)N[C@@H](Cc3ccc(OC)cc3)C(=O)N(C)[C@@H](C)C(=O)N1C)CS2 [APRATOXIN E] yielded an IC50 [16] of 100 nM.
Work on CC/C(=C\C(=O)N(C)/C=C\CCC[C@H]1CC[C@H](C)C[C@@H](C)C(=O)N(C)[C@@H](CC(C)C)C(=O)O1)OC yielded an IC50 [17] of 2500 nM.
In the case of CC[C@H](C)[C@@H]1NC(=O)CNC(=O)c2csc(n2)[C@H](C(C)(C)O)OC(=O)C(C)(C)[C@H](CCCC(C)(Cl)Cl)OC(=O)c2csc1n2 [LYNGBYABELLIN A], the IC50 [16] is reported as 52.1 nM and the LD [18] is reported as 2.4 mg/kg.
C=C[C@@H]1CSC(C[C@@H](C)[C@@H](C)C[C@H](C)CCN(C)C(=O)[C@H](C)CC)=N1 showed an INH [19] of 1 nM, an LC50 ([13]; read-out: LC50) of 170 nM and an IC50 [20] of 25 nM. The LC50 [1] was 700 nM.
In the case of CCCCC(C)C1C[C@@H](O)CCC[C@H](O)C[C@@H](O)C[C@@H](O)CCCC(O)CCCC(O)CCCC(O)CCCC(O)CCCC(O)CC(C)CC(=O)O1 (stereo partly specified), the IC50 [16] is reported as 9900 nM.
O=CNC(CCCC#C/C=C\Cl)CCC/C=C\C=C(Cl)Cl (stereo unspecified) showed an LC50 [13, 35] of 1.7 µg/mL and an LC50 [14] of 1 µg/mL (≈ 2.87 µM).
CCCCCCCC[C@@H](C/C=C/CCC(=O)NC/C(=C/Cl)C1=CCC[C@@H](OC(C)=O)C1=O)OC showed an IC50 [21] of 4000 nM, an inhibition [22] of 28% and an Activity [23] of 19%. For the same molecule, the IC50 [7] was 4000 nM.
C=CCCC/C(=C/Cl)CCC(C)/C=C/CCC(=O)NCC/C(=C\C(=O)N1C(=O)C=C[C@@H]1C)OC (stereo partly specified) gave a mortality at 5 ppm [24] of 100%, an IC50 [21] of 15000 nM and a mortality at 10 ppm [25] of 25%. It also gave an IC50 [7] of 15000 nM.
Molecule C=CCC(CC/C=C/C=C/CC/C=C\C1CSC([C@@H]2C[C@@H]2C)=N1)OC (stereo partly specified) has an IC50 [26] of 340 nM, an inhibition [11] of 53% and an LC50 [13, 35] of 15600 nM.
CC[C@@H](C)[C@@H]1NC(=O)CN(C)C(=O)[C@@H](Cc2ccccc2)N(C)C(=O)[C@H](C)NC(=O)[C@@H]([C@@H](C)CC)OC(=O)/C(C)=C/C[C@H](O)[C@@H](C)C[C@H]([C@@H](C)CC)OC(=O)[C@H](C)N(C)C1=O gave an IC50 [27] of 2.1 nM, an inhibition at 100 µg/mL [28] of 49% and an IC50 [29] of 2.1 nM. It also gave an IC50 [30] of 2.1 nM, an IC50 [31] of 2.1 nM and an IC50 [32] of 2.1 nM. It also gave an IC50 [33] of 290 nM.
In the case of O=CNC(CCCC#CC=C(Cl)Cl)CCCCCCC(Cl)Cl (stereo unspecified), the LC50 [13, 35] is reported as 1.7 µg/mL and the LC50 [14] is reported as 1 µg/mL (≈ 2.58 µM).
C#CCCC/C(=C/Cl)CCC(C)/C=C/CCC(=O)NCC/C(=C\C(=O)N1C(=O)C=C[C@@H]1C)OC (stereo partly specified) gave an IC50 [21] of 15000 nM, a survival at 1.5 h, 5 ppm [34] of 0% and an IC50 [7] of 15000 nM.

Source: ChEMBL document CHEMBL5244246, “Recent advances in chemistry and bioactivity of marine cyanobacteria Moorea species” (Eur J Med Chem, 2020)
